From patent US7354911B2, “1,3-benzodioxol compound and use of same” (Sumitomo Chemical Company, Limited, priority 2006, dated 2008)

Test system: Musca domestica
Experiment: Topical application of acetone solution to female adult Musca domestica, mortality after 24 hours
Assay type: in vivo
Settings: 0.5 μL acetone solution on back of chest region, 25° C.
Procedure: After mixing the present compounds (1), (2), (3), (4), (5), and (6) with d-allethrin respectively, acetone solutions containing each mixture with the respective prescribed concentrations (w/v) listed in Table 2 were prepared. An adult Musca domestica was applied with 0.5 μL of the acetone solution dropped on the back side of its chest region, transferred to a plastic cup having about 9 cm diameter and about 4.5 cm height, and then left at 25° C. with being fed by 5% of aqueous sugar solution. […] The number of the Musca domesticas contained in each cup was 10, and the test was repeated twice.
Furthermore, after preparing acetone solutions containing each of the present compounds (1), (2), (3), (4), (5), and (6) and d-allethrin in the respective prescribed concentrations (w/v) listed in Table 2, a test was conducted as the same manner mentioned above.
For comparison, with using 4,5-methylenedioxy-2-propylphenyl2-butoxyethyl ether (hereinafter, referred to as a comparative compound)
[drawing 16] in place of the present compounds, a test was conducted in the same manner.

[1] = test compound 1.25 % (w/v) alone, d-allethrin 0 % (w/v)
[2] = test compound 1.25 % (w/v) mixed with d-allethrin 0.25 % (w/v)

Row | SMILES | mortality ratio [1] [%] | mortality ratio [2] [%] | mortality ratio (d-allethrin 0.25 % (w/v) alone, no test compound) [%]
1 | C=CCc1cc2c(cc1OCCOCC)OCO2 [The present compound (3), 5-(2-ethoxyethoxy)-6-(2-propenyl)-1,3-benzodioxol] | 0 | 100 | 
2 | CCCc1cc2c(cc1OCCOC)OCO2 [The present compound (2), 5-(2-methoxyethoxy)-6-propyl-1,3-benzodioxol] | 0 | 90 | 
3 | CCCCOCCOc1cc2c(cc1CCC)OCO2 [Comparative compound, 4,5-methylenedioxy-2-propylphenyl2-butoxyethyl ether, reference compound] | 0 | 55 | 
4 | CCCOCCOc1cc2c(cc1CCC)OCO2 [The present compound (6), 5-{(2-propyloxy)ethoxy}-6-propyl-1,3-benzodioxol] | 0 | 80 | 
5 | C=CCc1cc2c(cc1OCCOC)OCO2 [The present compound (1), 5-(2-methoxyethoxy)-6-(2-propenyl)-1,3-benzodioxol] | 0 | 100 | 
6 | CCCc1cc2c(cc1OCCOCC)OCO2 [The present compound (4), 5-(2-ethoxyethoxy)-6-propyl-1,3-benzodioxol] | 0 | 100 | 
7 | C=CCC1=C(C)C(OC(=O)C2C(C=C(C)C)C2(C)C)CC1=O (stereo not drawn) [d-allethrin, reference compound] |  |  | 0
8 | C=CCc1cc2c(cc1OCCOCCC)OCO2 [The present compound (5), 5-{2-(propyloxy)ethoxy}-6-(2-propenyl)-1,3-benzodioxol] | 0 | 90 | 
